Source: patent US20220339143A1, “TAK-925 FOR USE IN TREATING NARCOLEPSY” (Takeda Pharmaceutical Company Limited, priority 2019, published 2022)
Read-outs that look alike come from different tables or passages of the source.

Tests used:
[1] = Single dose PK in patients with narcolepsy (Cohorts 5, 6 and 7), plasma; type: in vivo, human; details: for clearance / concentration at 9 h / AUC(0-inf) / AUC(0-t) / Cmax / AUC / Tmax / Vd / concentration at 1 h / concentration at 2 h / concentration at 4 h / concentration at 6 h: human, plasma; for AUC: read-out: AUC24
Method: This study investigates (i) the safety and tolerability of Compound A (methyl (2R,3S)-3-((methylsulfonyl)amino)-2-(((cis-4-phenylcyclohexyl)oxy)methyl)piperidine-1-carboxylate) when a single dose given as a 9 hour continuous IV infusion is administered to healthy adults, healthy elderly subjects and patients with narcolepsy type 1 (NT1); (ii) the pharmacokinetics of Compound A when a single dose given as a 9 hour continuous IV infusion is administered to healthy adults, healthy elderly subjects and patients with narcolepsy type 1; and (iii) the pharmacodynamics (PD) effects of Compound A, primarily by evaluation of the sleep latency on MWT when a single dose given as a 9 hour continuous IV infusion is administered to patients with narcolepsy type 1.
In Part 2, NT1 patients received a single dose of Compound A or placebo administered as a continuous IV infusion over a 9-hour period during the day. A 40-minute Maintenance of Wakefulness Test (MWT) was conducted 4 times during the continuous IV infusion to assess effects on wakefulness in soporific conditions at 2, 4, 6 and 8 hours from start of infusion. Three cohorts of patients were enrolled (n=14 total).
Pharmacokinetics: Concentrations of Compound A in plasma, and CSF, and pharmacokinetics parameters.
On average, the time to reach the plateau appeared to be approximately 4 hours after the start of infusion. […] After switching off the IV infusion, Compound A plasma concentrations declined rapidly and in a biphasic manner with a mean terminal disposition phase t1/2z ranging approximately from 3.5 to 4.1 hours across the doses.

patients with NT1 = assay: PVT, multiple dose (Cohorts B1, B2); type: in vivo, human; details: 9 hours postdose
[2] = intravenous, 44.8 mg, Cmpd A 44.8 mg, Geo Mean, Cohort 5, 6, 7
[3] = intravenous, 44.8 mg, Cmpd A 44.8 mg, Mean, Cohort 5, 6, 7
[4] = intravenous, 44.8 mg, Cmpd A 44.8 mg, Median, Cohort 5, 6, 7
[5] = iv, 5 mg, NT1, single 9 h IV infusion, read-out: Plasma concentration, Mean
[6] = iv, 5 mg, NT1, single 9 h IV infusion, read-out: Plasma concentration, Median
[7] = iv, 11.2 mg, NT1, single 9 h IV infusion, read-out: Plasma concentration, Mean
[8] = iv, 11.2 mg, NT1, single 9 h IV infusion, read-out: Plasma concentration, Median
[9] = iv, 44.8 mg, NT1, single 9 h IV infusion, read-out: Plasma concentration, Mean
[10] = iv, 44.8 mg, NT1, single 9 h IV infusion, read-out: Plasma concentration, Median

For COC(=O)N1CCC[C@H](NS(C)(=O)=O)[C@@H]1CO[C@H]1CC[C@@H](c2ccccc2)CC1 [Compound A, methyl (2R,3S)-3-((methylsulfonyl)amino)-2-(((cis-4-phenylcyclohexyl)oxy)methyl)piperidine-1-carboxylate], the clearance ([1]; intravenous, 11.2 mg, Cmpd A 11.2 mg, Median, Cohort 5, 6, 7, read-out: CL (converted)) was 924 mL/min, the concentration at 9 h ([1]; intravenous, 11.2 mg, Cmpd A 11.2 mg, Median, Cohort 5, 6, 7, read-out: Ceoi) was 21.9 ng/mL and the AUC(0-inf) [1, 2] was 925 ng·h/mL. It also gave an AUC(0-t) [1, 2] of 911 ng·h/mL, a Cmax [1, 2] of 96.5 ng/mL and an AUC [1, 2] of 911 ng·h/mL. The concentration at 9 h ([1]; intravenous, 44.8 mg, Cmpd A 44.8 mg, Geo Mean, Cohort 5, 6, 7, read-out: Ceoi) was 94 ng/mL, the AUC(0-inf) [1, 3] was 959 ng·h/mL and the AUC(0-t) [1, 3] was 941 ng·h/mL. It also gave a Cmax [1, 3] of 98.3 ng/mL, a Tmax [1, 3] of 6.5 h and an AUC [1, 3] of 941 ng·h/mL. For the same compound, the clearance ([1]; intravenous, 44.8 mg, Cmpd A 44.8 mg, Mean, Cohort 5, 6, 7, read-out: CL (converted)) was 836 mL/min, the concentration at 9 h ([1]; intravenous, 44.8 mg, Cmpd A 44.8 mg, Mean, Cohort 5, 6, 7, read-out: Ceoi) was 96.2 ng/mL and the Vd ([1]; intravenous, 44.8 mg, Cmpd A 44.8 mg, Mean, Cohort 5, 6, 7, read-out: Vss) was 117 L. The Vd ([1]; intravenous, 44.8 mg, Cmpd A 44.8 mg, Mean, Cohort 5, 6, 7, read-out: Vz) was 281 L, the AUC(0-inf) [1, 4] was 930 ng·h/mL and the AUC(0-t) [1, 4] was 919 ng·h/mL. The Cmax [1, 4] was 97 ng/mL, the Tmax [1, 4] was 6.5 h and the AUC [1, 4] was 919 ng·h/mL. It also gave a clearance ([1]; intravenous, 44.8 mg, Cmpd A 44.8 mg, Median, Cohort 5, 6, 7, read-out: CL (converted)) of 809 mL/min, a concentration at 9 h ([1]; intravenous, 44.8 mg, Cmpd A 44.8 mg, Median, Cohort 5, 6, 7, read-out: Ceoi) of 95.2 ng/mL and a Vd ([1]; intravenous, 44.8 mg, Cmpd A 44.8 mg, Median, Cohort 5, 6, 7, read-out: Vss) of 116 L. For the same compound, the Vd ([1]; intravenous, 44.8 mg, Cmpd A 44.8 mg, Median, Cohort 5, 6, 7, read-out: Vz) was 282 L, the concentration at 1 h [1, 5] was 6.38 ng/mL and the concentration at 1 h [1, 6] was 6.25 ng/mL. For the same compound, the concentration at 2 h [1, 5] was 8.75 ng/mL, the concentration at 2 h [1, 6] was 9.15 ng/mL and the concentration at 4 h [1, 5] was 10.1 ng/mL. The concentration at 4 h [1, 6] was 9.62 ng/mL, the concentration at 6 h [1, 5] was 7.91 ng/mL and the concentration at 6 h [1, 6] was 7.97 ng/mL. For the same compound, the concentration at 9 h ([1]; iv, 5 mg, 9 hr, NT1, single 9 h IV infusion, read-out: Plasma concentration, Mean) was 9.64 ng/mL, the concentration at 9 h ([1]; iv, 5 mg, 9 hr, NT1, single 9 h IV infusion, read-out: Plasma concentration, Median) was 9.96 ng/mL and the concentration at 1 h [1, 7] was 14.4 ng/mL. It also gave a concentration at 1 h [1, 8] of 14.3 ng/mL, a concentration at 2 h [1, 7] of 17.3 ng/mL and a concentration at 2 h [1, 8] of 17.1 ng/mL. It also gave a concentration at 4 h [1, 7] of 21.5 ng/mL, a concentration at 4 h [1, 8] of 21.5 ng/mL and a concentration at 6 h [1, 7] of 19.5 ng/mL. The concentration at 6 h [1, 8] was 19.8 ng/mL, the concentration at 9 h ([1]; iv, 11.2 mg, 9 hr, NT1, single 9 h IV infusion, read-out: Plasma concentration, Mean) was 21.2 ng/mL and the concentration at 9 h ([1]; iv, 11.2 mg, 9 hr, NT1, single 9 h IV infusion, read-out: Plasma concentration, Median) was 21.9 ng/mL. For the same compound, the concentration at 1 h [1, 9] was 61.5 ng/mL, the concentration at 1 h [1, 10] was 56.5 ng/mL and the concentration at 2 h [1, 9] was 74.1 ng/mL. It also gave a concentration at 2 h [1, 10] of 76.3 ng/mL, a concentration at 4 h [1, 9] of 96 ng/mL and a concentration at 4 h [1, 10] of 92.9 ng/mL. The concentration at 6 h [1, 9] was 90 ng/mL, the concentration at 6 h [1, 10] was 88.3 ng/mL and the concentration at 9 h ([1]; iv, 44.8 mg, 9 hr, NT1, single 9 h IV infusion, read-out: Plasma concentration, Mean) was 96.2 ng/mL. For the same compound, the concentration at 9 h ([1]; iv, 44.8 mg, 9 hr, NT1, single 9 h IV infusion, read-out: Plasma concentration, Median) was 95.2 ng/mL, the clearance ([1]; iv, IV administration, NT1 patients, read-out: mean estimates of plasma clearance) was 833 to 950 mL/min and the “time to reach the plateau of plasma concentration after the start of infusion” value ([1]; single 9 h IV infusion, 5 to 44.8 mg, NT1 patients) was “approximately 4 hours”. For the same compound, the “PVT, mean change from baseline in the number of lapses” value (from here on “PVT, mean change … of lapses”) (patients with NT1; 11 mg, Day 1 (placebo 10.5)) was −9.3, the “PVT, mean change from baseline in mean duration of the reciprocal 10% slowest reaction time (1/RT)” value (patients with NT1; 11 mg, Day 1 (placebo −0.49)) was 0.88 and the “PVT, mean change … of lapses” value (patients with NT1; 11 mg, Day 7 (placebo 11.8)) was −14.8. For the same compound, the “PVT, mean change from baseline in mean duration of the reciprocal 10% slowest reaction time (1/RT)” value (patients with NT1; 11 mg, Day 7 (placebo −0.73)) was 1.27, the “PVT, mean change … of lapses” value (patients with NT1; 44 mg, Day 1 (placebo 10.5)) was −12.8 and the “PVT, mean change from baseline in mean duration of the reciprocal 10% slowest reaction time (1/RT)” value (patients with NT1; 44 mg, Day 1 (placebo −0.49)) was 0.51. For the same compound, the “PVT, mean change … of lapses” value (patients with NT1; 44 mg, Day 7 (placebo 11.8)) was −12.8 and the “PVT, mean change from baseline in mean duration of the reciprocal 10% slowest reaction time (1/RT)” value (patients with NT1; 44 mg, Day 7 (placebo −0.73)) was −0.70.
